Assay results: patent US8609870B2, “Treating various disorders using TrkB agonists” (Emory University, priority 2008, dated 2013)

How the values were obtained:
[1] = system: hippocampal neurons; assay: Glutamate-triggered apoptosis in hippocampal neurons (MR(DEVD)2 / condensed nuclei); format: cell-based; conditions: 0.5 μM preincubated 30 min, then 50 μM glutamate 16 h
Protocol: To create and test reporter cell lines. In order to identify small molecules that mimic BDNF and activate TrkB, TrkB stably transfected murine cell lines are created. The T48 and T62 cell lines are created by transfecting basal forebrain SN56 cells, which express negligible TrkB, with a TrkB expression construct. To test expression of TrkB, the cells are treated with BDNF, which is predicted to result in strong phosphorylation of Trk-490 and Akt activation in comparison to the TrkA NTR stably expressing T17 cell line indicating expression of TrkB. To test resistance to apoptosis, the SN56 cells and the T48 cell line are either untreated or treated with BDNF, and then are subjected to an apoptotic assay. The apoptotic assay involves treating the cells with 0.75 μM Staurosporine for 9 hours, and 1 hour before completing the experiment, the cells are treated with 10 μM MR (DEVD)2. The cells then are fixed with 4% paraformaldehyde for 15 minutes, washed with phosphate buffered saline (PBS), and incubated with Hoechst 33342 for 10 minutes. Cover slides are washed with PBS, mounted, and then the cells are examined using a fluorescent microscope to see which cells turn red upon caspase cleavage.
To compare the apoptosis inhibitory activity of identified active compounds, the compounds are preincubated with SN56 and T48 cells, and subsequently are subjected to the fluorescent apoptotic assay as described above. To examine whether these identified active compounds promote neuronal survival, hippocampal neurons are prepared and the cultures are pretreated with the identified active compounds for 30 minutes, followed by treatment with 50 μM glutamate for 16 hours.
Using a cell-based screen as described above in Example 1 (based on the anti-apoptotic action of TrkB signaling) and the chemical library from the Spectrum Collection (described above), 66 positive hits were generated, four of which were gedunin derivatives. […] In this assay, neurons with both cleaved caspase (MR (DEVD)2 red cells) and condensed nuclei (DAPI staining) were counted as apoptotic cells. […]

[2] = biological target: T1, TrkB (Mus musculus, UniProt P15209); assay: TrkB activation in mouse brain after i.p. or oral administration; format: in vivo
T1 construct: Brain lysates were prepared and analyzed by immunoblotting; from tissue; host or cells: mouse brain
Protocol: Unless specifically described, brain tissues are fixed in 4% paraformaldehyde overnight followed by paraffin embedding. Sections of 5 μm are cut. For immunohistochemical staining, brain sections are deparaffinized in xylene and rehydrated in graded alcohols. Endogenous peroxidase activity are blocked by 3% hydrogen peroxide for 5 minutes and all slides are boiled in 10 mM sodium citrate buffer (pH 6.0) for 10 minutes. Phosphorylated Trk A, Trk A, phosphorylated Trk B, and Trk B are detected using specific antibodies and, e.g., a Zymed HistostainPlus AEC kit (Invitrogen; Carlsbad, Calif.). Slides then are counterstained with hematoxylin.
To assess whether an identified active compound provokes TrkB activation in the brain, mice are intraperitoneally injected with a dose of 5 mg/kg and analyzed at various time points. […] Further, whether the protein and mRNA levels of the neurotrophic receptors is altered after treatment with an identified active compound is measured.
Both Akt and Erk1/2 were robustly activated by these molecules as well). […] The minimal required drug concentration was about 100-250 nM (see FIG. 7, right panels). […] To assess whether deoxygedunin provokes TrkB activation in the brain, mice (i.p.) were injected with a dose of 5 mg/kg for various time points. […] To establish that deoxygedunin is orally bioactive in provoking TrkB activation, two to three month old C57BL/6J mice were orally injected with various doses of 7,8-dihydroxyflavone or deoxygedunin then sacrificed 2 to 4 hours after administration. Brain lysates were prepared and analyzed by immunoblotting (see FIG. 10).

[3] = system: TrkB; assay: TrkB activation in cortical neurons from knockout mouse pups; format: cell-based
Protocol: To determine whether an identified active compound selectively activates TrkB receptor and prevents neuronal cell death, cortical neurons are prepared from homozygous pups of TrkB +/− mice, which are mated to the same genotype. The activation of TrkB and down stream indicators of TrkB activation, such as Capase-3, are monitored. To further assess whether an identified active compound blocks neuronal apoptosis in a TrkB dependent manner, cortical neurons are prepared from homozygous pups of […], which are mated to the same genotype. Again, the activation of TrkB and down stream indicators of TrkB activation, such as Capase-3, are monitored.
Additionally, the spontaneous caspase-3 activation in […] was suppressed by deoxygedunin.

[4] = biological target: T1, TrkB; assay: TrkB activation in BDNF cortex conditional knockout mice; format: in vivo; conditions: 5 mg/kg i.p., sacrificed at 4 hours; wild-type and BDNF −/− mice
Description: The Cortex-Specific Cre mouse line was previously described as “transgenic line C” (Chhatwal et al., Gene Ther. 14, 575-583 (2007)). Briefly, coding sequence for Cre-recombinase (Cre-IRES-DsRed2) was placed downstream of a 3 kb cholecystokinin (CCK) promoter, linearized, purified, and microinjected into the pronuclei of one-cell C57/BL6 embryos, which were then implanted into pseudopregnant C57/BL6 females. Following verification of gene expression in the different transgenic lines (Chhatwal et al., Nat. Neurosci. 9, 870-872 (2006)), the cortex-specific “line C” was crossed to a floxed-stop lacZ reporter mouse line (Soriano, Nat. Genet., 21, 70-71 (1999)) as well as the floxed BDNF mouse line (Rios et al., Mol. Endocrinol., 15, 1748-1757 (2001)). Region specific Cre gene expression and BDNF deletion were confirmed with in situ hybridization, x-gal staining for β-galactosidase expression, and Western blot for BDNF protein levels.
To examine whether deoxygedunin activating TrkB involved endogenous BDNF, BDNF conditional knockout mice with BDNF gene deletion limited to cortex (thus allowing normal development) were used. Deoxygedunin (5 mg/kg) was intraperitoneally injected into the BDNF cortex conditional knockout mice and the mice were sacrificed at 4 hours. […]

[5] = system: C57BL/6 mice; assay: KA-induced apoptosis in hippocampus (TUNEL staining); format: in vivo, mouse; conditions: 5 mg/kg i.p. followed by 20 mg/kg KA, 5 days

T1 sequence (P15209 32-821): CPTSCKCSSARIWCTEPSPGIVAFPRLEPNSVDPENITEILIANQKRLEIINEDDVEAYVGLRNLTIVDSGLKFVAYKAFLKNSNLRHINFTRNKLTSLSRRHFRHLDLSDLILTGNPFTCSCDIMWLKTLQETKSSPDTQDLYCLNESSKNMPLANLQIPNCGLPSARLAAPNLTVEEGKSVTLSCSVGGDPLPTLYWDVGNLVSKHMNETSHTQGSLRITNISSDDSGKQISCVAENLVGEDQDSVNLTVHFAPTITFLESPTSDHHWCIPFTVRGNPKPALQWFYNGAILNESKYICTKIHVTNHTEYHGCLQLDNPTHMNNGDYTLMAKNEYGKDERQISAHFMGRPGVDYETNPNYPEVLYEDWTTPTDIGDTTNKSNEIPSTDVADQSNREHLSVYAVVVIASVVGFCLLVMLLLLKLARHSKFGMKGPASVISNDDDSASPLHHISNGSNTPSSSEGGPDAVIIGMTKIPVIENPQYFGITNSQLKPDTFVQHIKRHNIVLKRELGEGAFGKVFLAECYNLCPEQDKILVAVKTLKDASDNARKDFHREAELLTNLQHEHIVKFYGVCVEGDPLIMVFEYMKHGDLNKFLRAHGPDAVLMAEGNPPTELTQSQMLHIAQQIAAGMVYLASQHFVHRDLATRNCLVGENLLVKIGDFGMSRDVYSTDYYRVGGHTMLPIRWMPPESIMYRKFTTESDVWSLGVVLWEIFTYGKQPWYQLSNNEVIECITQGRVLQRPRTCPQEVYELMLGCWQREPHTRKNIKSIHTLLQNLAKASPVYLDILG

## CC(=O)O[C@@H]1C[C@H]2C(C)(C)C(=O)C=C[C@]2(C)[C@H]2CC[C@]3(C)C(=CC(=O)O[C@H]3c3ccoc3)[C@@]21C [deoxygedunin]
[1]
  protective effect (apoptosis inhibitory activity): most robust protective effect
[2]; mice, 5 mg/kg i.p.
  time after injection at which TrkB was phosphorylated in the brain: 2 h
  time of peak TrkB phosphorylation in the brain: 4 to 8 h
[2]; mice, 5 mg/kg i.p., inferred from brain TrkB phosphorylation
  blood-brain barrier penetration: penetrated the blood-brain barrier
[2]; mouse hippocampus upon treatment
  TrkB activation in hippocampus (immunohistochemistry staining): robust TrkB activation in hippocampus
[3]; TrkB −/− cortical neurons
  TrkB activation: not TrkB −/− neurons
[3]; both wild-type and TrkC knockout neurons
  TrkB activation: strongly provoked TrkB
[3]; wild-type cortical neurons (pups of TrkB +/− mice)
  TrkB activation: specifically activated TrkB
[4]
  TrkB activation: TrkB activation occurred in both wild-type and BDNF −/− mice
[5]
  KA provoked apoptosis in the hippocampus (TUNEL staining): diminished
  decrease of KA induced apoptosis in hippocampus: 60%
